Results as given in patent US20260250325A1, “Antiviral Polypeptide Membrane Fusion Inhibitor, and Preparation Method and Application Thereof” (priority 2025, published 2026).
Where a SMILES comes first, the peptide text is derived from it. [ ]: non-standard residue; d: D form. The star is where a group is joined. ξ: configuration not given here. Succinyl(4-O-cholesteryl) = CC(C)CCC[C@@H](C)[C@H]1CC[C@H]2[C@@H]3CC=C4C[C@@H](OC(=O)CCC(=O)*)CC[C@]4(C)[C@H]3CC[C@]12C; ξD = NC(CC(=O)O)C(=O)O

Experiments:
RSV A2 virus strain [1] = experiment: Mouse RSV A2 challenge protection, lung viral titer by plaque method; assay type: in vivo, BALB/c mice
Procedure: Female BALB/c mice were from Shanghai Yishang Biotechnology Co., Ltd. HEp- 2 were from the ATCC, with a catalog number CCL-23. The cells were cultured in a DMEM medium solution in which 10% (v/v) fetal bovine serum and 1% penicillin and streptomycin were added. The RSV A2 virus strain was from the ATCC, with a catalog number VR-1540.
Eight-week-old female BALB/c mice were grouped based on body weight (n=6). All animals were intranasally challenged with RSV on Day 0 at a challenge dosage of 1×10^6 pfu (20 μL) per animal. Administration began 1 h after Day 0 challenge; the polypeptide sample, positive control, and solvent control were administered via tracheal nebulization once daily for 5 consecutive days (see Table 3 below for administration dosage and administration frequency). Lung tissue was collected from all animals 2 h after the final administration on Day 4; left lung tissue was rapidly frozen in a virus protection solution with a 10-fold volume and stored below −70° C.; and a viral titer was detected by using a plaque method.
For analysis, the lung RSV A2 virus was determined by performing a tissue homogenate viral load plaque method. In short, on the day prior to sample detection, the HEp-2 cells were inoculated into a 12-well plate (spreading density being 0.3×10^6 cells/mL, with 1000 μL of cell suspension per well) according to a standard HEp-2 cell culture operation procedure. On the day of incubation, the supernatant was taken from the tissue sample that was homogenized using a tissue homogenizer (maintaining a low-temperature environment), and the supernatant was taken after centrifugation. The tissue homogenate sample was diluted with serum-free DMEM, and inoculated into a 12-well plate at a final volume of 400 μL. After 2 h of incubation, the homogenate supernatant was discarded, and 1.5 mL of a covering layer (cell culture medium containing 1% soft agar) was added to each well and cultured in the incubator for approximately 72 h. The covering layer was discarded, the cells were fixed, blocking was performed by using a blocking solution, dyeing was performed with HRP-RSVG, development and air drying were terminated with pure water. Colored spots on the well plate were counted by using a fluorescent (enzyme-linked) immunoassay spot analyzer, and the viral titer was expressed as a plaque-forming unit per gram of tissue (PFU/g). The viral titer was calculated as an arithmetic mean±standard error of all animals in a group.
(§1) One hour after RSV A2 challenge in mice, compounds 13, 14, 17, 19, 20, 21, 26, 27, 28, and 40 were administered via tracheal nebulization once daily for 5 consecutive days; and 2 h after the final administration, lung tissue was collected from all groups for viral plaque detection, and results were shown in Table 3.

[2] = Cytotoxicity test in HEp-2 cells (CCK8 cell viability); assay type: cell-based; settings: human; HEp-2 cells, CCK8, 1 day; read-out: CC50
How it was run: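 Compound dilutions (final DMSO 0.5%) were applied for 1 day to HEp-2 cells plated at 30,000 per well the day before. CCK8 signal gave survival relative to cell and medium controls, and a four-parameter log(inhibitor)-response fit yielded CC50.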

RSV A2 virus strain [3] = experiment: Cotton rat RSV A2 challenge protection, lung nucleic acid load by RT-qPCR; assay type: in vivo; settings: cotton rats
Excerpt: Female cotton rats were from Shanghai Yishang Biotechnology Co., Ltd. The RSV A2 virus strain was from the ATCC, with a catalog number VR-1540. RT-qPCR primer+probe primer were supplied by Qingke Biotechnology Co., Ltd, with batch number TSP20241227-025-00187. The RT-qPCR standard was provided by Vazyme, with batch number 20241008.
Female cotton rats (6-8 weeks old) were grouped based on body weight (n=5). All animals were intranasally challenged with RSV on Day 0 at a challenge dosage of […] pfu (50 μL) per animal. Administration began 1 h after Day 0 challenge; the polypeptide sample, positive control, and solvent control were administered via tracheal nebulization once daily for 5 consecutive days. Lung tissue was collected from all animals 2 h after the final administration on Day 4. Left lung tissue (including partial trachea) was rapidly frozen in a virus protection solution with a 10-fold volume and stored below −70° C.; and the viral titer was detected with RT-qPCR.
First, sample homogenization and lung tissue RNA extraction were performed, and the supernatant was taken from the tissue sample that was homogenized using a tissue homogenizer (maintaining a low-temperature environment). The approximately 100 μL of the homogenate supernatant was taken, and total tissue RNA was extracted by using a VeZol reagent-chloroform-water phase-magnetic bead method, and dissolved in RNase-free water. The RT-qPCR reaction system was prepared as follows: a one-step RT-qPCR reaction system was prepared by using an RNA template, a probe, a primer pair, an RT-qPCR buffer, and the RNase-free water; each sample was tested in duplicated wells, with each well containing 20 μL of the one-step RT-qPCR reaction system; a quantitative standard curve well (RSV A2 N gene full-length plasmid), a positive quality control well, and a negative quality control well were arranged at the same time. Then, amplification programs were set according to reverse transcription, pre-denaturation, and cyclic amplification, and amplification data was collected by using a real-time fluorescence quantification PCR instrument, and a mean CT value for duplicated wells was calculated. The CT value from the test results for each sample was substituted into a quantitative standard curve to calculate a copy number. A calculation formula for RSV viral load (copy number/gram of lung tissue) was: sample viral load (copy number/gram of lung tissue)=copy number/relative tissue input (g).
as §1, with “cotton rats,” for “mice,”, “titer” for “plaque”, “4.” for “3.”

## CC[C@H](C)[C@H](NC(=O)[C@H](CCCCN)NC(=O)[C@H](CCCCN)NC(=O)[C@H](CC(C)C)NC(=O)[C@H](CO)NC(=O)[C@H](CCC(=O)O)NC(=O)[C@H](CCC(=O)O)NC(=O)[C@@H](NC(=O)[C@H](CCCCN)NC(=O)[C@H](CCCCN)NC(=O)[C@H](CC(N)=O)NC(=O)[C@@H](NC(=O)[C@H](CCC(=O)O)NC(=O)[C@H](CCC(=O)O)NC(=O)[C@@H](NC(=O)[C@H](CCCCN)NC(=O)[C@H](CCCCN)NC(=O)[C@H](CC(=O)O)NC(=O)[C@H](Cc1ccccc1)NC(=O)[C@H](CCC(=O)O)NC(=O)C(CC(=O)O)NC(C)=O)[C@@H](C)CC)C(C)C)[C@@H](C)CC)C(=O)N[C@@H](CCC(=O)O)C(=O)N[C@@H](CCC(=O)O)C(=O)N[C@@H](CO)C(=O)N[C@@H](CC(=O)O)C(=O)N[C@@H](CCCCN)C(=O)N[C@@H](CCCCN)C(=O)N[C@@H](CC(C)C)C(=O)N[C@@H](CCC(=O)O)C(=O)N[C@@H](C)C(=O)N[C@@H](C)C(=O)N[C@@H](C)C(=O)N[C@@H](CCCCN)C(=O)N[C@@H](CCCCNC(=O)CCC(=O)O[C@H]1CC[C@@]2(C)C(=CC[C@H]3[C@@H]4CC[C@H]([C@H](C)CCCC(C)C)[C@@]4(C)CC[C@@H]32)C1)C(N)=O (some centres unmarked) [Compound 17] (Ac-[ξD]EFDKKIEEVNKKIEESLKKIEESDKKLEAAAKK(Succinyl(4-O-cholesteryl))-NH2)
RSV A2 virus strain [1]; BALB/c mice, tracheal nebulization 1 mg/kg QD for 5 days, lung collected 2 h after final administration on Day 4
  Mean (PFU/g lung): 7885 PFU/g lung
RSV A2 virus strain [1]; mice, tracheal nebulization once daily for 5 days
  effect on viral titer in lung tissue (in words): significantly reduce the viral titer in lung tissue
[2]
  CC50 at 1 day: 26.4 µM
RSV A2 virus strain [3]; tracheal nebulization 1 mg/kg QD for 5 days, lung collected 2 h after final administration on Day 4
  Nucleic acid load RT-qPCR detection results Log10 mean (copy number/gram of lung tissue): 8.42 Log10 copy number/gram of lung
RSV A2 virus strain [3]; tracheal nebulization once daily for 5 days
  effect on viral titer in lung tissue (in words): significantly reduce the viral titer in lung tissue
